This data set in a line: calcium hypochlorite stability temperature data. Type of data set: physicochemical. Particulars: below approximately 120° C., 15 minute exposure. An excerpt: FIG. 2 illustrates calcium hypochlorite stability temperature data.

As to `[Ca+2].[O-]Cl.[O-]Cl` [calcium hypochlorite], the “free chlorine concentration on heating” value was “maintains its free chlorine concentration”.

For the origin of these results see patent publication US20150125528A1 (The Water Initiative, LLC, priority 2012, published 2015).
